The record followed here is paper PMC6978316, “Development of chimeric peptides to facilitate the neutralisation of lipopolysaccharides during bactericidal targeting of multidrug-resistant Escherichia coli” (Communications Biology, 2020).

Data set [1] relates to 1:1 mixture of E. coli CVCC195 and S. aureus ATCC43300. Format: cell-based, Escherichia coli; Staphylococcus aureus. The settings on record: Mean. On the procedure:
The selectivity of A6, G6, and N6 against Gram-negative and Gram-positive bacteria was determined using the mixed-culture bactericidal kinetics assay, as described in the Supplementary Information.
27 Supplementary Figure 6. Killing selectivity of peptides. A 1:1 mixture of E. coli (Ec) and S. aureus
28 (Sa) was treated with A6 (16 μg per ml), G6 (16 μg per ml) or N6 (2 μg per ml) for 1, 3 and 5 min,
29 respectively; survivors were counted in MH plates. The change in relative ratio of E. coli to S. aureus
30 (Ec/Sa) after treatment with A6, G6 or N6 is shown.
31 independent experiments).
(§1) (1 picture or pasted object on this page, not shown here)
102 Supplementary Methods
103 Mixed-culture bactericidal kinetics of SCPs-A6 and G6. The mid-exponential phage E. coli
104 CVCC195 and S. aureus ATCC43300 cultures were diluted to 2 × 10^5 CFU per ml, mixed (1:1) and
105 added into the 96-well plates. A6, G6 or N6 were added into each well of plates to final concentration
106 of 16 (A6 and G6) or 2 (N6) μg per ml in a 200-μl total volume. An aliquot was removed at 1, 3 and 5
107 min, respectively, and survivors were counted on MH solid plates1–3. […]

Data set [2] relates to MDR E. coli CVCC195. Description: pH stability, residual antibacterial activity (inhibition zone). Format: physicochemical, Escherichia coli. The settings on record: inhibition zone vs E. coli CVCC195, mean of n = 3.
Method: The N6, A6, and G6 solutions were treated at different temperatures (20–100 °C) for 1 h, dissolved and incubated at different pH values (2–10) for 3 h, or incubated with trypsin or pepsin for 4 h. The inhibition zone diameters were measured after incubation at 37 °C for 18–24 h.
The subject of data set [3] is TNF-α, IL-6 and IL-10 in LPS-stimulated RAW 264.7 cells. As to the kind of experiment: Cytokines in LPS-stimulated macrophages (ELISA). The arrangement: unit not given here. Format: cell-based, mouse. On the procedure: Macrophages RAW 264.7 were incubated with LPS (0.1 and 1 μg per ml) that was dissolved in serum-free DMEM medium, and then were treated with A6, G6, N6, or PMB (20 μM) alone in 24-well plates (2.5 × 10^5 cells per well). The cells incubated with serum-free DMEM and LPS were used as a control. After treatment for 2 h, the supernatants were collected and assessed for TNF-α, IL-6, and IL-10 by using the ELISA kits in the Jiaxuan Biotech. Co. Ltd. (Beijing, China).
73 Supplementary Figure 15. Effects of SCPs on cytokines in RAW 264.7 ells. Cells were incubated with 0.1 μg per
74 ml (a) or 1 μg per ml (b) LPS and 20 μM A6, G6, N6 or PMB for 2 h. The levels of TNF-α, IL-6 and IL-10 in
75 supernatants were measured using ELISA. The data are given as the mean ± SD (n = 3 independent experiments).
76 Different lower case letters indicate a significant difference between two groups (p < 0.05).
as §1
For orientation: An ELISA detects its analyte on a solid surface through an enzyme-linked reagent.

The subject of data set [4] is E. coli LPS. Description: Sepsis mouse model, survival after lethal LPS challenge. Format: in vivo, ICR mice. To be noted: mice, LPS 13.5 mg per kg i.p., 7 d, n = 5. On the procedure: The mouse survival was recorded for 7 d. The mice injected with LPS or saline were used as negative or blank controls, respectively.
The subject of data set [5] is Intestinal alkaline phosphatase (IAP). As to the kind of experiment: IAP level in duodenum of LPS-challenged mice. It is filed as in vivo. To be noted: duodenum homogenate, peptides 0.25 μmol per kg, PMB 10 μmol per kg, LPS alone 10.2985, CK 14.2257, n = 3. As to the method:
The mice were intraperitoneally injected with LPS at an absolute LD100 and then were treated with 0.25 μmol per kg peptides (A6, G6 and N6) or 10 μmol per kg PMB at 0.5 h after challenge. The mice were sacrificed at 2 h and the sera were collected to detect inflammatory cytokines (including TNF-α, IL-6 and IL-10) using ELISA kits. To visualize IAP activity, the duodenum was rapidly excised from the mice and was homogenized; the IAP levels in the superpants were detected as described in the Supplementary Information. […]
114 Effects of SCPs on inflammatory cytokines and IAP. The serum sample (50 μl) was added into
115 each well of the plate; 50 μl of TNF-α, IL-I, IL-10 or IAP standard, control and test samples were then
116 added to each well of the plate, followed by placing the latex film on the shaker and incubation for 2
117 h at room temperature. After discarding the liquid in the well, the enzyme labeling plate was placed in
118 a 400 μl washing solution in the washing machine for 4 times; the enzyme labeling plate is inverted
119 and tapped on a clean paper towel so that there was no residual liquid in each hole . Mouse TNF-α，
120 IL-I，IL10 or IAP Conjugate (HRP Conjugate Detection Ab) working solution (100 μl) was added to
121 each well of the plate (diluted 1:100 before the test); the latex film was placed on the shaker and
122 incubated for 2 h at room temperature. After discarding the liquid in the well, the enzyme labeling
123 plate was placed in a 400 μl washing solution in the washing machine for 4 times, then the enzyme
124 labeling plate is inverted, and tapped on a clean paper towel so that there is no residual liquid in each
125 hole. Substrate Solution (100 μl) was added to each well of the plate and incubated at room
126 temperature for 30 min in the dark. Finally, 100 μl of Stop Solution (2N sulfuric acid solution) was
127 added to each well of the plate and gently mixed the plate to stop the reaction. The optical density
128 value was read by placing the microplate in a microplate reader for 30 min with the reading
129 wavelength of 450 nm and the calibration wavelength of 570 nm.
131 1. Kaplan, C. W., et al. Selective membrane disruption: mode of action of C16G2, a specifically
133 2. Eckert, R., et al. Adding selectivity to antimicrobial peptides: rational design of a multidomain
134 peptide against Pseudomonas spp. Antimicrob Agents Chemother. 50(4), 1480–1488 (2006).
135 3. Eckert, R., et al. Targeted killing of Streptococcus mutans by a pheromone-guided "smart"

Data set [6] concerns E. coli CVCC195. Format: cell-based, Escherichia coli. The settings on record: E. coli CVCC195. On the procedure: Bacterial resistance against the peptides was assessed via the MIC assays. […] After 16–18 h of incubation at 37 °C, cells from the second highest concentration showing visible growth were used to inoculate the subsequent cultures. The MIC values for drug passage cultures were obtained as described above. This process was repeated for 30 d.

The mark [7] stands for this setting: RAW 264.7 cells incubated with 0.1 μg per ml LPS.
[8] abbreviates: RAW 264.7 cells incubated with 1 μg per ml LPS.

Read-outs that look alike come from different tables or passages of the source. Where a SMILES comes first, the peptide text is derived from it. Bridges are numbered along the chain shown (N, C = ends).

As for `CC(C)[C@@H]1NC(=O)CNC(=O)[C@H](CC(N)=O)NC(=O)[C@H](CCCNC(=N)N)NC(=O)[C@H](Cc2ccc(O)cc2)NC(=O)[C@H](C(C)C)NC(=O)[C@@H](NC(=O)[C@@H](NC(=O)[C@H](CC(N)=O)NC(=O)[C@H](Cc2c[nH]c3ccccc23)NC(=O)[C@H](C)NC(=O)[C@H](Cc2ccccc2)NC(=O)CN)C(C)C)CSSC[C@@H](C(=O)N[C@@H](Cc2c[nH]cn2)C(=O)N[C@@H](CCCNC(=N)N)C(=O)N[C@@H](CCCNC(=N)N)C(=O)N[C@@H](C)C(=O)N[C@@H](CC(N)=O)C(=O)O)NC(=O)[C@H](C(C)C)NC(=O)[C@H](CCCNC(=N)N)NC1=O` [N6] (H-GFAWNVCVYRNGVRVCHRRAN-OH; disulfide 7-16; N-terminus and C-terminus assumed), the “killing selectivity of peptides” value in data set [1] (time 0 min) is on record as 0.9569; in data set [1] (time 1 min), 0.9093; in data set [1] (time 3 min), 0.8204; in data set [1] (time 5 min), 0.6732. Further, the “antibacterial activity after pH treatment (inhibition zone diameter), Mean” value in data set [2] (pH=2 for 3 h) is 1.883; in data set [2] (pH=4 for 3 h), 1.877; in data set [2] (pH=6 for 3 h), 1.87; in data set [2] (pH=8 for 3 h), 1.86; in data set [2] (pH=10 for 3 h), 1.887. Further, the “IL-6 Mean” value in data set [3] (setting [7]) stood at 279.833; in data set [3] (setting [8]), 303.4. Further, the “IL-10 Mean” value in data set [3] (setting [7]) worked out at 106.233; in data set [3] (setting [8]), 118.033. For the same molecule, the “TNFα Mean” value in data set [3] (setting [7]) is on record as 479.8; in data set [3] (setting [8]) it was 495.967. The molecule further had a mouse survival in data set [4] (0.125 μmol per kg) of 60%. Moreover, the survival result in data set [4] (0.25 μmol per kg) is “All mice survived”. Further, the “IAP, Mean” value in data set [5] was 10.7594.

Take polymyxin B [PMB]: in data set [3] (setting [7]), the “IL-6 Mean” value was 311.767, the “IL-10 Mean” value is given as 122.2 and the “TNFα Mean” value was found to be 546.867. Further, in data set [3] (setting [8]), the “IL-6 Mean” value stood at 278.7, the “IL-10 Mean” value worked out at 116.9 and the “TNFα Mean” value was determined as 447.633. In data set [4] (10 μmol per kg), the survival result was “All mice survived”. For the same molecule, in data set [6], the “change of MIC over the course of 30 serial passages” value was “hardly changed”. In data set [5], the “IAP, Mean” value is on record as 13.0879.
